According to paper PMC10421376, “Simultaneous Determination of Five Iridoids of Picrorhiza scrophulariiflora in Rat Plasma Using UHPLC-ESI-MS/MS” (Molecules, 2023):
Where two headings read alike, the source gives them in different places.

How the values were obtained:
[1] = Stability of the analytes in rat plasma QC samples under storage and processing conditions; type: in vitro ADME; settings: n = 6; for Short-Term Stability RE: room temperature 4 h; for Freeze-Thaw RE: three freeze-thaw cycles −20 °C/room temperature; for Long-Term Stability RE: −20 °C two weeks
Description: Stability refers to the chemical stability of the sample being tested in a given medium under certain external conditions. We obtained 100 µL of rat blank plasma and prepared low, medium, and high concentrations of the QC sample standard solutions, Picroside-I, Picroside-II, Picroside-III, minecoside, and sweroside, according to the method described in Section 3.3. As simulated biological samples, the following conditions were investigated: (1) Short-term stability (QC samples were left at room temperature for 4 h, which exceeded the sample preparation time); (2) long-term stability (QC samples were left at −20 °C for two weeks); (3) freeze-thaw stability (three freeze-thaw cycles at −20 °C/room temperature) and post-preparation stability (QC samples were left in a 4 °C auto sampling chamber for 24 h).

[2] = Pharmacokinetics of five iridoids in rat plasma after oral administration of PS extract (UHPLC-ESI-MS/MS); type: in vivo, SD (Sprague Dawley) rats
Description: Six adult male SD (Sprague Dawley) rats (220–250 g) were purchased from the Animal Experiment Center of Heilongjiang University of Chinese Medicine. The Animal Ethics Committee of Harbin Medical University approved the experimental protocol, which conformed to the principles for the Care and Use of Laboratory Animals. The experimental animals were fed under the following conditions: room temperature (20–25 °C), relative humidity (40–60%), 12 h of alternating day and night lighting, 12 h of fasting before the experiment, and free access to water. We calculated the dosage of SD rats using the standardized formula for body surface area (BSA). According to the Chinese Pharmacopoeia, the dosage of PS raw medicine for human use is 10 g. The dosage for rats is 0.9 g/kg.
The dried PS powder weighed 200 g and was extracted with eight times the amount of 75% ethanol at reflux three times for 2 h each time. The extracts were combined, filtered, distilled under reduced pressure until the alcoholic taste disappeared, and lyophilized with water. In our previous laboratory experiments, we used HPLC to determine the content of five analytes, namely Picroside-I (15.68 mg/g), Picroside-II (103.64 mg/g), Picroside-III (64.08 mg/g), minecoside (2.02 mg/g), and sweroside (12.28 mg/g). After freeze-drying, we dissolved the solid in a 5% sodium carboxymethyl cellulose solution and prepared a medicinal extract solution with a concentration of 0.3 g/mL.
A dose of 1 g/kg of body weight was administered to rats according to the pharmacopoeia and previous content results for the five analytes. Rat tail vein blood samples were collected in heparinized tubes before and 0.167, 0.333, 0.5, 0.75, 1, 2, 4, 6, 8, and 12 h after administration and centrifuged at 3500 rpm for 10 min. We obtained 100 µL of the upper layer of plasma and stored it at −20 °C for measurement.
The plasma samples were treated according to the method described in Section 3.3. The plasma samples were determined according to the chromatographic conditions described in Section 3.4 and chromatograms were recorded. The measured peak area ratios of the substances being measured and the IS were substituted into the accompanying standard curves on the same day. We also calculated the blood concentrations of Picroside-I (15.68 mg/g), Picroside-II (103.64 mg/g), Picroside-III (64.08 mg/g), minecoside (2.02 mg/g), and sweroside (12.28 mg/g), respectively. We determined the QC samples at the same time, allowing a maximum of two different concentrations of QC samples to exceed the theoretical value of ±15% of the RE% value.
The peak areas of Picroside-I, Picroside-II, Picroside-III, minecoside, sweroside, and IS in each sample were recorded. We calculated and substituted their ratios into the standard curve equation to obtain corresponding concentrations for the five substances being measured in the plasma of SD rats. The blood concentration data of each rat were processed separately to calculate the relevant pharmacokinetic parameters, and the mean and standard deviation of the parameters were further calculated. We calculated and plotted pharmacokinetic parameters including concentration–time curves (AUC0–t, AUC0–∞), average residence time (MRT), maximum plasma concentration (Cmax), time to reach the maximum concentration (Tmax), and half-time (t1/2) using pharmacokinetic software (DAS 2.0) with a non-atrial chamber model for blood concentration–time curves. All parameters were expressed as mean ± SD.

H9c2 = settings: cardiac cell line H9c2; cited from earlier work
[3] = design: method as in PMID 27498779; settings: mice, bile stasis-induced liver injury; cited from earlier work
CXCR4 = test system: CXCR4; design: method as in PMID 32016931; settings: breast cancer cells; cited from earlier work
hyaluronidase = settings: cited from earlier work
[4] = male, Sprague-Dawley, rat, in vivo, po, 1 g/kg
[5] = rat plasma, oral PS extract 1 g/kg, n = 6, mean ± SD

Row | SMILES | Short-Term Stability RE ([1]; high QC) [%] | Freeze-Thaw RE ([1]; high QC) [%] | Long-Term Stability RE ([1]; high QC) [%] | Short-Term Stability RE ([1]; low QC) [%] | Freeze-Thaw RE ([1]; low QC) [%] | Long-Term Stability RE ([1]; low QC) [%] | Short-Term Stability RE ([1]; medium QC) [%] | Freeze-Thaw RE ([1]; medium QC) [%] | Long-Term Stability RE ([1]; medium QC) [%] | AUC(0-inf) [2, 4] [ng·h/mL] | AUC(0-t) [2, 4] [ng·h/mL] | Cl [2, 4] [mL/min/kg] | Cmax [2, 4] [ng/mL] | MRT last [2, 4] [h] | Tmax [2, 4] [h] | Vd [2, 4] [L/kg] | half-life [2, 4] [h] | further results
1 | O=C(/C=C/c1ccccc1)OC[C@H]1O[C@@H](O[C@@H]2OC=C[C@H]3[C@H](O)[C@@H]4O[C@]4(CO)[C@@H]23)[C@H](O)[C@@H](O)[C@@H]1O [Picroside-I] | 6.58 | −1.94 | 3.59 | 8.93 | 6.43 | 5.60 | 3.83 | −2.74 | −5.69 | 382 ± 29.4 | 361 ± 25.6 | 607.2 ± 290.6 | 114 ± 16.1 | 3.6 ± 0.2 | 1.1 ± 0.2 | 186.7 ± 17.436 | 2.4 ± 0.3 | 
2 | C=C[C@H]1[C@H](O[C@@H]2O[C@H](CO)[C@@H](O)[C@H](O)[C@H]2O)OC=C2C(=O)OCC[C@H]21 [Sweroside, sweroside] |  |  |  |  |  |  |  |  |  |  |  |  |  |  |  |  |  | Effect on aconitine toxicity to myoblasts (H9c2): reduce aconitine’s toxicity; Effect on pro-inflammatory responses and bile acid levels [3]: improves pro-inflammatory responses and bile acid levels; AUC(0-t) ([2]; male, Sprague-Dawley, in vivo, rat plasma, oral PS extract 1 g/kg, n = 6, mean ± SD, read-out: AUC0–t): 261 ± 65.3 ng·h/mL; AUC(0-inf) ([2]; male, Sprague-Dawley, in vivo, rat plasma, oral PS extract 1 g/kg, n = 6, mean ± SD, read-out: AUC0–∞): 268 ± 70.8 ng·h/mL; Cmax ([2]; male, Sprague-Dawley, in vivo, rat plasma, oral PS extract 1 g/kg, n = 6, mean ± SD, read-out: Cmax): 63.7 ± 17.6 ng/mL; MRT last ([2]; male, Sprague-Dawley, in vivo, rat plasma, oral PS extract 1 g/kg, n = 6, mean ± SD, read-out: MRT0–t): 3.9 ± 0.3 h; Tmax ([2]; male, Sprague-Dawley, in vivo, rat plasma, oral PS extract 1 g/kg, n = 6, mean ± SD, read-out: Tmax): 2.1 ± 0.1 h; half-life ([2]; male, Sprague-Dawley, in vivo, rat plasma, oral PS extract 1 g/kg, n = 6, mean ± SD, read-out: t1/2 (converted)): 1.2 ± 0.3 h; Cl [2, 5]: 2015 ± 615.8 mL/min/kg; Vd [2, 5]: 785.1 ± 130.6 L/kg
3 | COc1ccc(/C=C/C(=O)O[C@H]2[C@@H]3C=CO[C@@H](O[C@@H]4O[C@H](CO)[C@@H](O)[C@H](O)[C@H]4O)[C@@H]3[C@@]3(CO)O[C@@H]23)cc1O [Minecoside, minecoside] |  |  |  |  |  |  |  |  |  | 93.5 ± 22.6 | 78.9 ± 10.2 | 119.1 ± 39.7 | 21.1 ± 7.8 | 4.1 ± 0.7 | 1 ± 0.2 | 19.26 ± 4.77 | 5 ± 2.3 | Effect on CXCR4 expression (CXCR4): inhibits the expression of CXCR4; Hyaluronidase inhibitory activity (hyaluronidase): hyaluronidase inhibitory activity
4 | COc1cc(C(=O)O[C@H]2[C@@H]3C=CO[C@@H](O[C@@H]4O[C@H](CO)[C@@H](O)[C@H](O)[C@H]4O)[C@@H]3[C@@]3(CO)O[C@@H]23)ccc1O [Picroside-II] | 4.47 | −1.47 | −2.19 | −4.99 | 7.08 | 8.69 | 8.53 | −7.21 | 1.37 | 611 ± 246 | 604 ± 239 | 2873.3 ± 999.3 | 336 ± 92.3 | 2.3 ± 0.5 | 1.1 ± 0.1 | 796 ± 503.5 | 2.3 ± 1.5 | AUC(0-t) ([2]; male, Sprague-Dawley, rat, in vivo, po): 604 ± 239 ng·h/mL
